# Source: patent US4769461A, “Quinolinyl benzene hydroxamic acids as anti-inflammatory/antiallergic agents” (American Home Products Corporation, priority 1986, dated 1988)
# Where two headings read alike, the source gives them in different places.
# Tests used:
# [1] = system: LTD4 induced bronchoconstriction; assay: Inhibition of bronchospasm induced in guinea pigs by exogenously administered leukotrienes C4 and/or D4; format: in vivo, guinea pig (male Hartley); conditions: 10 minutes before induction of bronchospasm; for ED50: Cavia porcellus, read-out: IC50 (the source's name)
# Protocol: The assay of this Example measures the in vivo ability of the compounds of the invention to inhibit the bronchospasm induced in guinea pigs by the exogenously administered leukotrienes C4 and/or D4.
# This assay is carried out as follows:
# Male Hartley strain guinea pigs (350-600 g) are anesthetized with pentobarbital sodium (50 mg/kg, i.p.). The jugular vein is cannulated for injection of drugs and the carotid artery for monitoring blood pressure. The trachea is cannulated for artificial ventilation by a miniature Starling pump and for indirect measurement of respiratory volume changes. The animals are then pretreated with succinylcholine (2 mg/kg i.v.) and indomethacin (10 mg/kg i.v. in trizma 8.3 buffer, 9 minutes prior to leukotriene challenge). Submaximal bronchoconstrictor responses are established in control animals by varying the dose-levels of leukotriene. Intravenous dose-levels for LTC4 range from 0.4 to 0.6 μg/kg and for LTD4 the range is from 0.3 to 0.5 μg/kg. The aerosol bronchoprovocation dose for LTC4 is generated from 1.6 μM solution and for LTD4 from a 2.0 μM solution.
# Test drugs (dissolved in a solvent such as propylene glycol, polyethylene glycol 400 or saline) are administered either intraduodenally, by aerosol or perorally at 2 or 10 minutes before induction of bronchospasm by administration of either LTC4 or LTD4 at the predetermined dose-levels. Aerosols of soluble drugs or leukotrienes are produced in-line for 10 seconds only by actuation of an ultrasonic nebulizer (Monaghan). Aerosolized drug dosage is expressed in terms of solution concentration and by a fixed aerosol exposure time (approximately 10 seconds). Control animals receive solvent (2 ml/kg i.d. or appropriate aerosol) in place of drug.
# (§1) Respiratory volume changes are determined by a calibrated piston whose travel is recorded, via a linear transducer, on a Beckman Dynograph recorder. Maximal bronchoconstrictor volume is determined by clamping off the trachea at the end of the experiment. Overflow volumes at 1, 3 and 5 minutes are obtained from the recorded charts.
# (§2) Area under the volume overflow curve (AUC) is estimated, using the overflow values at 1, 3 and 5 minutes, and expressed as a percentage of the maximal overflow AUC (equation 1): [formula] Drug effects are reported as percent inhibition of % max AUC values obtained from appropriate control animals (equation 2): [formula]
# Student's t-test for unpaired data is used to determine statistical significance (p<0.05). IC50 values can also be determined by inverse prediction from linear regression lines through points between 10 and 90% inhibition.
# [2] = system: ovalbumin induced bronchospasm mediated by endogenous products of lipoxygenase oxidation of arachidonic acid; assay: Inhibition of ovalbumin induced bronchospasm in guinea pigs by endogenous mediators of bronchoconstriction; format: in vivo, guinea pig (male Hartley); conditions: 10 minutes before ovalbumin challenge; for ED50: Cavia porcellus
# Protocol: The assay of this Example measures the in vivo ability of the compounds of the invention to inhibit the bronchospasm induced in guinea pigs by endogenous mediators of the bronchoconstriction.
# (§3) The assay is carried out as follows:
# Male Hartley strain guinea pigs weighing 250-350 g are sensitized to chicken ovalbumin (OA) (10 mg i.p.) on days 1 and 3 and used starting on day 26. The animals are anesthetized with pentobarbital sodium (50 mg/kg, i.p.), bilateral vagotomy is performed, and the jugular vein is cannulated for injection of drugs and the carotid artery for monitoring blood pressure. The trachea is cannulated for artificial ventilation by miniature Starling pump and for indirect measurement of respiratory volume changes. Succinylcholine (2 mg/kg, i.v.) is administered to arrest spontaneous respiration. A cyclooxygenase inhibitor, indomethacin (10 mg/kg in tris buffer, i.v. at 9 min.) is administered to shunt arachidonic metabolism to lipoxygenase pathways. One minute later, chlorpheniramine (1.0 mg/kg in saline, i.v.) is given to attenuate the histaminic component of anaphylactic bronchoconstriction. Test drugs (dissolved in propylene glycol, polyethylene glycol or saline) are administered either intraduodenally, perorally or by aerosol at 2 or 10 minutes before antigen challenge. Anaphylactic bronchoconstriction is induced by administration by breaths of aerosolized OA (1%) or by intravenous administration of 0.1-0.3 mg/kg OA in saline. Control animals receive solvent (2 ml/kg i.d. or appropriate aerosol) in place of drug.
# as §1, with “volumes at minutes 1, 3” for “volumes at 1, 3”, “and 5 are obtained” for “and 5 minutes are obtained”
# as §2, with “2): [formula] Student's t-test for unpaired data is used to determine statistical significance. Dose response curves are generated and ED50 doses are interpolated from the regression lines.” for “2): [formula]”
# [3] = system: carrageenan paw edema (acute inflammatory response); assay: Rat carrageenan paw edema assay; format: in vivo, rat (male Sprague-Dawley); conditions: for % Inhibition at 100 mg/kg (peroral): 1 hour prior to carrageenan, edema at 3 hours; for ED50: Rattus norvegicus, po, read-out: Oral ED50 (95% C.L.) mg/kg
# Protocol: The compounds of the invention are further tested in the rat carrageenan paw edema assay to determine their ability to inhibit the acute inflammatory response. This assay is carried out as follows: 140-180 gm male Sprague-Dawley rats, in groups of 6 animals are injected subcutaneously in the right paw with 0.1 ml of 1% carrageenan at zero time. Mercury plethysmographic readings (ml) of the paw are made at zero time and 3 hours later. Test compounds are suspended or dissolved in 0.5% methylcellulose and given perorally 1 hour prior to carrageenan administration. The increase in paw volume (edema in ml.) produced by the carrageenan is measured. […] Unpaired Student's t-test is used to determine statistical significance.
# [4] = system: synthesis of the cyclooxygenase product PGE2 in rat polymorphonuclear leukocytes; assay: Inhibition of synthesis of the cyclooxygenase oxidation product PGE2 (procedure of Example 5); format: cell-based, rat (female Wistar); conditions: tested at 10 μm
# Protocol: Peritoneal PMN are obtained from female Wistar rats (150-250 g) that received an i.p. injection of 6% glycogen (10 ml). After 24 hours, rats are killed by CO2 asphyxiation and peritoneal cells are harvested by peritoneal lavage using Ca^++ and Mg^++ free Hanks' balanced salt solution (HBSS). The peritoneal exudate is centrifuged at 400 g for 10 minutes. After centrifugation, the lavaged fluid is removed and the cell pellet is resuspended in HBSS containing Ca^++ and Mg^++ and 10 mM L-cysteine at a concentration of 2×10^7 cells/ml. To 1 ml portions of cell suspension, test drugs or vehicle are added and incubated at 37° C. for 10 minutes. Following this preincubation, the calcium ionophore (10 μM), A23187, is added together with 0.5 μCi [14 C] arachidonic acid and further incubated for 10 minutes. The reaction is stopped by the addition of ice cold water (3 ml) and acidifying to pH 3.5. Lipoxygenase products are then extracted twice into diethyl ether. […] After chromatography, the areas associated with 5-HETE standard are identified by autoradiography, cut out and quantitated by liquid scintillation. […]
# In this assay, the procedure of Example 5 is carried out as described. […] After chromatography, the areas associated with the PGE2 standard are identified by autoradiography, cut out and quantitated by liquid scintillation techniques.
# The results are calculated as in Example 5.
# [5] = system: synthesis of the lipoxygenase product 5-HETE in rat polymorphonuclear leukocytes; assay: Inhibition of 5-HETE synthesis by rat glycogen elicited polymorphonuclear leukocytes; format: cell-based, rat (female Wistar)
# Protocol: The assay of this Example measures the ability of the compounds of the invention to inhibit the synthesis of 5-HETE by rat glycogen elicited polymorphonuclear leukocytes.
# as §3
# Peritoneal PMN are obtained from female Wistar rats (150-250 g) that received an i.p. injection of 6% glycogen (10 ml). After 24 hours, rats are killed by CO2 asphyxiation and peritoneal cells are harvested by peritoneal lavage using Ca^++ and Mg^++ free Hanks' balanced salt solution (HBSS). The peritoneal exudate is centrifuged at 400 g for 10 minutes. After centrifugation, the lavaged fluid is removed and the cell pellet is resuspended in HBSS containing Ca^++ and Mg^++ and 10 mM L-cysteine at a concentration of 2×10^7 cells/ml. To 1 ml portions of cell suspension, test drugs or vehicle are added and incubated at 37° C. for 10 minutes. Following this preincubation, the calcium ionophore (10 μM), A23187, is added together with 0.5 μCi [14 C] arachidonic acid and further incubated for 10 minutes. The reaction is stopped by the addition of ice cold water (3 ml) and acidifying to pH 3.5. […] After chromatography, the areas associated with 5-HETE standard are identified by autoradiography, cut out and quantitated by liquid scintillation.
# The compounds of this invention are tested in this assay at a level of 10 μm. […] Some results are expressed as an IC50 value.
# [6] = 25 mg/kg perorally administered
smiles,measurement,setting,value
"O=C(NO)c1cccc(OCc2ccc3ccccc3n2)c1 [Example 4A, 3-[(2-quinolinyl)methoxy]benzoic hydroxamic acid]",% Inhibition,[1]; 25 mg/kg intraduodenally,32.8%
"O=C(Cc1cccc(OCc2ccc3ccccc3n2)c1)NO [Example 3, 3-[(2-Quinolinyl)methoxy]benzeneaceto hydroxamic acid]",% Inhibition,[1]; 25 mg/kg intraduodenally,10%
"CONC(=O)c1cccc(OCc2ccc3ccccc3n2)c1 [Example 2A, O-methyl-3-[(2-quinolinyl)methoxy]benzoic hydroxyamate]",% Inhibition,[1]; 25 mg/kg intraduodenally,92.8%
same,% Inhibition,[1]; 25 mg/kg perorally,72.4%
same,ED50,"[1]; po, perorally administered",13.1 mg/kg
same,ED50,[1]; intraduodenally administered,3.16 mg/kg
same,% Inhibition of Max AUC,[2]; 25 mg/kg intraduodenal,76.6%
same,% Inhibition of Max AUC,[2]; [6],-1.5%
same,% Inhibition at 100 mg/kg (peroral),[3],32%
"CONC(=O)Cc1cccc(OCc2nc3ccccc3n2C)c1 [Example 2D, O-methyl-3-[1-methyl(2-benzimidazoyl)methoxy]benzoaceto hydroxamate]",>50% Inhibition at 10 μm,[4],"+ (those compounds having an inhibition of >50% are designated by a ""+"")"
same,% Inhibition at 100 mg/kg (peroral),[3],48%
"COc1ccc2c(c1)c(CC(=O)O)c(C)n2C(=O)c1ccc(Cl)cc1 [Indomethacin, reference compound]",ED50,[3],3.7 mg/kg
"CONC(=O)Cc1cccc(OCc2ccc3ccccc3n2)c1 [Example 1, O-methyl-3-[(2-quinolinyl)methoxy]benzeneaceto hydroxamate]",IC50,"[5]; Leukocyte, rat PMN",10.5 µM
same,% Inhibition,[1]; 25 mg/kg intraduodenally,90.6%
same,% Inhibition,[1]; 25 mg/kg perorally,86.3%
same,ED50,"[1]; po, perorally administered",5.9 mg/kg
same,ED50,[1]; intraduodenally administered,1.8 mg/kg
same,% Inhibition of Max AUC,[2]; 25 mg/kg intraduodenal,56.0%
same,% Inhibition of Max AUC,[2]; [6],82.8%
same,ED50,"[2]; po, perorally administered",2.5 mg/kg
same,ED50,[2]; intraduodenal,7.3 mg/kg
same,% Inhibition at 100 mg/kg (peroral),[3],50%
"CONC(=O)Cc1cccc(OCc2nc3ccccc3s2)c1 [Example 2E, O-methyl-3-[(2-benzthiazoyl)methoxy]benzoaceto hydroxamate]",% Inhibition at 100 mg/kg (peroral),[3],38%
"O=C(Cc1cccc(OCc2ccc3ccccc3n2)c1)NOCc1ccccc1 [Example 2C, O-benzyl-3-[(2-quinolinyl)methoxy]benzeneaceto hydroxamate]",% Inhibition at 100 mg/kg (peroral),[3],37%
"O=C(NOCc1ccccc1)c1cccc(OCc2ccc3ccccc3n2)c1 [Example 2B, O-benzyl-3-[(2-quinolinyl)methoxy]benzoic hydroxamate]",>50% Inhibitory at 10 μm,[5]; tested at 10 μm,"+ (those compounds having an inhibition of >50% are designated by a ""+"")"
same,>50% Inhibition at 10 μm,[4],"+ (those compounds having an inhibition of >50% are designated by a ""+"")"
same,% Inhibition,[1]; 25 mg/kg intraduodenally,69.4%
same,% Inhibition at 100 mg/kg (peroral),[3],42%
"CC(=O)Oc1ccccc1C(=O)O [Aspirin, reference compound]",ED50,[3],145 mg/kg
